The values below come from patent publication US9023370B2, “Conjugates comprising nanoparticles coated with platinum containing compounds” (priority 2008, dated 2015).

Series [1] can be described thus: Stability: platinum drug release after incubation, quantified by ICP-MS. The format is physicochemical. To be noted: 48 h incubation with cellular medium at 37° C. The method, then:
The stability of these conjugates was compared with the stability of the conjugates of the invention. […] The stability tests were based on inductively coupled plasma mass spectroscopy ICP-MS quantifications of platinum drug release after incubation of both systems.

Series [2] in a line: Zeta potential of nanoparticles and conjugates. The format is physicochemical. The following applies: pH 7.0. The procedure:
The zeta potential of nanoparticles and conjugates was determined using a Malvern ZetaSizer Analyzer (Malvern Instruments, UK). These measurements were performed with control of the pH (7.0).

For series [3], the system named is A549 tumor cells. Kind of series: MTT assay of the conjugates in tumoral cells. It is filed as cell-based, human. The following applies: 48 h. The procedure:
Cells were plated in a multiwell-96 plate (Iwaki) at 4×10^3 cells/well and 24 hours later the medium was changed for treatments. Tetrazolium salt 3-(4,5-dimethylthiazol-2-yl)-2,5-diphenyltetrazoliumbromide (MTT, Acros Organics) was used for mitochondrial activity evaluation in cell viability studies 24 and 48 hours post-treatments. Plates were measured in MicroPlate Reader Model 550 (BIO-RAD) and data were processed with Excel and SPSS software. Using absorbance measurements [time zero, (Az), control growth, (C), and test growth in the presence of drug at the various concentration levels (Ai)], the percentage growth was calculated at each of the drug concentration levels. The assays were done with three cellular cancer lines: HeLa, A549 and HEK.
A and G represent the control values at 0 and 48 h respectively.

Details of series [4]: species or system SCID mice. To be noted: mouse, in vivo. The method, then: (§1) Fifteen SCID mice were choosen for the in vivo experiment. Mouse were injected 20 106 A549 lung tumoral cells in their flanks. Three random groups of five mice each were prepared. Then we waited until the tumour grew to an easily measurable size. The first group (A) was given no treatment. The second group (B) was given mild doses of commercial cisplatin (30 mg per Kg animal weight). The third group (C) was treated with the conjugates of example 4.1 with […] of 1.9 mg of platinum drug per litre in one intra-peritoneal dose. Tumour size (as a sign of therapeutical success) and animal weight (as a sign of secondary effects) were measured every three days. After fifteen days the experiments were stopped.

Series [5] deals with A549 lung tumoral cells. In words: Animal assay: tumour size. It is filed as in vivo. The following applies: SCID mice, A549 flank tumours, fifteen days; cisplatin 30 mg per Kg; example 4.1 100 ml of 1.9 mg platinum drug per litre, one intra-peritoneal dose. The method, then: as §1

“AuNP(NP:4 nm)-MUA-cisplatin [example 5, reference compound]”: the “release of platinum drug from the nanoparticle” value in series [1] was “release of platinum drug from the nanoparticle was only observed”.
The compound AuNP(NP:13 nm)-MUA [example 2.1] registered a ζ-potential in series [2] of −65.8 mV. Also, in series [3], the “effect on A549 lung tumoral cells viability (MTT)” value is reported as “did not elicit any response”.
With `N.N.[Cl][Pt][Cl]` [commercial cisplatin, cisplatin, reference compound], in series [4], the “animal weight (sign of secondary effects)” value is given as “loose of body weight”; the “kidney and hepatic dysfunction (preliminary biochemical measurements)” value is “did not indicate any kidney and hepatic significant dysfunction”. The tumour size result in series [5] is “reduction of tumour size”.
For the compound `N.N.O.O.O=[N+]([O-])[O-].O=[N+]([O-])[O-].[Pt+2]` [example 3, cis-[Pt(NH3)2(H2O)2](NO3)2], the “effect on A549 lung tumoral cells viability (MTT)” value in series [3] is reported as “did not elicit any response”.
